Experiments:
[1] = tested on: mHTT protein in GM04724 (CAG 70/20) Huntington's disease patient lymphoblast cells; assay: mHTT protein assay, 2B7-MW1 assay via Mesoscale Discovery (MSD); format: cell-based, human; settings: GM04724 Huntington's disease patient lymphoblasts
In short: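 Signal from the 2B7-MW1 antibody pair on MSD, rising with polyQ length and smaller HTT fragments, measured mHTT after 48 h compound exposure (0.6 nM–10 μM) in GM04724 cells. A parallel replicate plate gave CellTiter Glo viability.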

MDR1 (P-gp) = assay: in vitro; settings: dog, MDCK-MDR1, pH 7.4
MDR1 = assay: in vitro; settings: dog, MDCK-MDR1, pH 7.4
[2] = tested on: MDR1-MDCK cell monolayers; settings: dog, MDCK-MDR1, 120 min, 5 μM, pH 7.4
[3] = tested on: SMN protein in spinal muscular atrophy (SMA) patient fibroblasts (GM03813, Coriell); assay: SMN protein assay, Mesoscale Discovery (MSD); format: cell-based, human; settings: SMA patient fibroblasts GM03813, 48 hours, MSD; for EC50: read-out: SMN2 protein EC50
In short: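 Absolute SMN levels were quantified by MSD against an SMN protein standard curve (1 μg/ml to 19.5 pg/ml) run on each plate. Samples were lysates of GM03813 patient fibroblasts (7000 cells/well) treated 48 hours with compound doses from 2.5 μM down to 0.6 nM.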

| Compound | mHTT protein EC50 [1] | Papp A→B at 120 min, 5 μM (MDR1 (P-gp)) | Papp B→A at 120 min, 5 μM (MDR1 (P-gp)) | efflux ratio at 120 min, 5 μM (MDR1) | MDCK-MDR1: % Recov A-B [2] | MDCK-MDR1: % Recov B-A [2] | SMN2 protein EC50 [3] | EC50 [1] | EC50 [3] |
| --- | --- | --- | --- | --- | --- | --- | --- | --- | --- |
| O=c1c2cc(O)c(-c3ccc(N(C4CC4)[C@@H]4C[C@H]5CC[C@H](N5)[C@@H]4F)nn3)cc2ncn1CC(F)(F)F (single isomer, unassigned) [Compound 60A] | E (501 ≤ E ≤ 10.000) | 0.44 ×10⁻⁶ cm/s | 65.9 ×10⁻⁶ cm/s | 151 | 94% | 100% | E (501 ≤ E ≤ 10.000) | – | – |
| O=c1c2cc(O)c(-c3ccc(N(C4CC4)[C@H]4C[C@@H]5CC[C@@H](N5)[C@H]4F)nn3)cc2ncn1CC(F)(F)F (single isomer, unassigned) [Compound 60B] | – | 0.68 ×10⁻⁶ cm/s | 53 ×10⁻⁶ cm/s | 77 | 88% | 92% | – | 101 to 500 nM | 101 to 500 nM |
| CCc1cn(-c2ccc(-c3ccc(N(C)[C@@H]4C[C@H]5CC(F)(F)[C@@H](C4)N5)nn3)c(O)c2)nn1 (single isomer, unassigned) [Compound 64A] | E (501 ≤ E ≤ 10.000) | 7.18 ×10⁻⁶ cm/s | 52.2 ×10⁻⁶ cm/s | 7 | 64% | 78% | E (501 ≤ E ≤ 10.000) | – | – |
| CCc1cn(-c2ccc(-c3ccc(N(C)[C@H]4C[C@@H]5CC(F)(F)[C@H](C4)N5)nn3)c(O)c2)nn1 (single isomer, unassigned) [Compound 64B] | – | 5.61 ×10⁻⁶ cm/s | 58.6 ×10⁻⁶ cm/s | 10 | 69% | 83% | E (501 ≤ E ≤ 10.000) | 101 to 500 nM | – |
| CN(c1ccc(-c2cc3cc[nH]c(=O)c3s2)nn1)[C@@H]1C[C@H]2CC[C@H](N2)[C@@H]1F (single isomer, unassigned) [Compound 66A] | E (501 ≤ E ≤ 10.000) | 0.09 ×10⁻⁶ cm/s | 4.4 ×10⁻⁶ cm/s | 51 | 93% | 100% | E (501 ≤ E ≤ 10.000) | – | – |
| CN(c1ccc(-c2cc3cc[nH]c(=O)c3s2)nn1)[C@H]1C[C@@H]2CC[C@@H](N2)[C@H]1F (single isomer, unassigned) [Compound 66B] | E (501 ≤ E ≤ 10.000) | 0.07 ×10⁻⁶ cm/s | 4.64 ×10⁻⁶ cm/s | 68 | 98% | 98% | E (501 ≤ E ≤ 10.000) | – | – |
| CN(c1ccc(-c2cc3ccn(C)c(=O)c3s2)nn1)[C@@H]1C[C@H]2CC[C@H](N2)[C@@H]1F (single isomer, unassigned) [Compound 67A] | E (501 ≤ E ≤ 10.000) | 0.42 ×10⁻⁶ cm/s | 37.9 ×10⁻⁶ cm/s | 90 | 94% | 99% | E (501 ≤ E ≤ 10.000) | – | – |
| CN(c1ccc(-c2cc3ccn(C)c(=O)c3s2)nn1)[C@H]1C[C@@H]2CC[C@@H](N2)[C@H]1F (single isomer, unassigned) [Compound 67B] | E (501 ≤ E ≤ 10.000) | 0.47 ×10⁻⁶ cm/s | 40.9 ×10⁻⁶ cm/s | 86 | 91% | 96% | E (501 ≤ E ≤ 10.000) | – | – |
| CN(c1ccc(-c2cc(C#N)ccc2O)nn1)[C@@H]1C[C@H]2CC[C@H](N2)[C@@H]1F (single isomer, unassigned) [Compound 70A] | E (501 ≤ E ≤ 10.000) | 3.17 ×10⁻⁶ cm/s | 60.2 ×10⁻⁶ cm/s | 19 | 86% | 89% | – | – | 101 to 500 nM |
| CN(c1ccc(-c2cnc(C#N)cc2O)nn1)[C@@H]1C[C@H]2CC[C@H](N2)[C@@H]1F (single isomer, unassigned) [Compound 71A] | E (501 ≤ E ≤ 10.000) | 3.87 ×10⁻⁶ cm/s | 26.2 ×10⁻⁶ cm/s | 7 | 88% | 92% | E (501 ≤ E ≤ 10.000) | – | – |
| CN(c1ccc(-c2cnc(C#N)cc2O)nn1)[C@H]1C[C@@H]2CC[C@@H](N2)[C@H]1F (single isomer, unassigned) [Compound 71B] | E (501 ≤ E ≤ 10.000) | 5.04 ×10⁻⁶ cm/s | 20.9 ×10⁻⁶ cm/s | 4 | 90% | 89% | E (501 ≤ E ≤ 10.000) | – | – |
| CNC(=O)c1ccc(-c2ccc(N(C)[C@@H]3C[C@H]4CC[C@H](N4)[C@@H]3F)nn2)c(O)c1 (single isomer, unassigned) [Compound 77A] | E (501 ≤ E ≤ 10.000) | 0.29 ×10⁻⁶ cm/s | 36.3 ×10⁻⁶ cm/s | 124 | 104% | 110% | – | – | 101 to 500 nM |
| CN(c1ccc(-c2cn3c(=O)ccnc3cc2O)nn1)[C@@H]1C[C@H]2CC[C@H](N2)[C@@H]1F (single isomer, unassigned) [Compound 82A] | E (501 ≤ E ≤ 10.000) | 0.08 ×10⁻⁶ cm/s | 3.33 ×10⁻⁶ cm/s | 40 | 104% | 121% | – | – | 101 to 500 nM |
| CN(c1ccc(-c2cn3c(=O)ccnc3cc2O)nn1)[C@H]1C[C@@H]2CC[C@@H](N2)[C@H]1F (single isomer, unassigned) [Compound 82B] | E (501 ≤ E ≤ 10.000) | < 0.21 ×10⁻⁶ cm/s | 3.28 ×10⁻⁶ cm/s | > 15 | 72% | 110% | – | – | 101 to 500 nM |
| CN(c1ccc(-c2ccc(Oc3cnn(C)c3)cc2O)nn1)[C@@H]1C[C@H]2CC[C@H](N2)[C@@H]1F (single isomer, unassigned) [Compound 91A] | E (501 ≤ E ≤ 10.000) | 4.19 ×10⁻⁶ cm/s | 62.8 ×10⁻⁶ cm/s | 15 | 84% | 82% | – | – | 101 to 500 nM |
| CN(c1ccc(-c2ccc(Oc3cnn(C)c3)cc2O)nn1)[C@H]1C[C@@H]2CC[C@@H](N2)[C@H]1F (single isomer, unassigned) [Compound 91B] | E (501 ≤ E ≤ 10.000) | 3.94 ×10⁻⁶ cm/s | 73.3 ×10⁻⁶ cm/s | 19 | 106% | 102% | E (501 ≤ E ≤ 10.000) | – | – |
| CN1[C@@H]2CC[C@H]1[C@H](F)[C@H](N(c1ccc(-c3cc4oc(C(=O)N5CCC5)cc4cc3O)nn1)C1CC1)C2 (single isomer, unassigned) [Compound 92A] | E (501 ≤ E ≤ 10.000) | 1.23 ×10⁻⁶ cm/s | 57.8 ×10⁻⁶ cm/s | 47 | 93% | 88% | E (501 ≤ E ≤ 10.000) | – | – |
| CN1[C@H]2CC[C@@H]1[C@@H](F)[C@@H](N(c1ccc(-c3cc4oc(C(=O)N5CCC5)cc4cc3O)nn1)C1CC1)C2 (single isomer, unassigned) [Compound 92B] | – | 1.16 ×10⁻⁶ cm/s | 52.3 ×10⁻⁶ cm/s | 45 | 94% | 105% | – | 101 to 500 nM | 101 to 500 nM |
| CN(c1ccc(-c2cc3occc(=O)c3cc2O)nn1)[C@@H]1C[C@H]2CC[C@@H]([C@@H]1F)N2C (single isomer, unassigned) [Compound 94A] | E (501 ≤ E ≤ 10.000) | 4.99 ×10⁻⁶ cm/s | 33.9 ×10⁻⁶ cm/s | 7 | 68% | 71% | – | – | 101 to 500 nM |
| CN(c1ccc(-c2cc3occc(=O)c3cc2O)nn1)[C@H]1C[C@@H]2CC[C@H]([C@H]1F)N2C (single isomer, unassigned) [Compound 94B] | E (501 ≤ E ≤ 10.000) | 4.47 ×10⁻⁶ cm/s | 41.2 ×10⁻⁶ cm/s | 9 | 73% | 83% | – | – | 101 to 500 nM |
| CN(c1ccc(-c2cn3c(=O)ccnc3cc2O)nn1)[C@@H]1C[C@H]2CC[C@@H]([C@@H]1F)N2C (single isomer, unassigned) [Compound 95A] | E (501 ≤ E ≤ 10.000) | 0.15 ×10⁻⁶ cm/s | 8.79 ×10⁻⁶ cm/s | 59 | 85% | 115% | E (501 ≤ E ≤ 10.000) | – | – |
| CNC(=O)c1cc(O)c(-c2ccc(N(C)[C@@H]3C[C@H]4CC[C@@H]([C@@H]3F)N4C)nn2)cc1F (single isomer, unassigned) [Compound 96A] | E (501 ≤ E ≤ 10.000) | 2.97 ×10⁻⁶ cm/s | 53.7 ×10⁻⁶ cm/s | 18 | 100% | 114% | E (501 ≤ E ≤ 10.000) | – | – |
